# Experimental data published in patent US20100035858A1, “Novel Compositions and Methods for Binding and Inhibiting 5-HT4 Receptor” (Immune Control, Inc., priority 2008, published 2010).
# Entries after “also recorded” stand apart in the source; their conditions may differ.
# Experiments:
# [1] = system: B-cell neoplastic cell line RPMI 8226; assay: Inhibition of proliferation of RPMI cells; type: cell-based; conditions: RPMI cell viability, FIG. 1
# Description: The next set of experiments was designed to assess compounds that have low levels of brain penetration for the ability of the test compounds to inhibit cellular proliferation. An exemplary in vitro assay is to screen for the ability of the test compounds to inhibit proliferation of the B-cell neoplastic cell line RPMI 8226 (a plasmacytoma derived from a multiple myeloma patient (Matsuoka, et al., 1967, Proc. Soc. Exp. Biol. Med. 125: 1246-1250). However other cell line can be used such as, U266 (established from an IgE-secreting myeloma patient (Nilsson, et al., 1970, Clin. Exp. Immunol., 7: 477-489) and ARH77 (an EBV transformed plasma cell leukemia (Burk, et al., 1978, Cancer Res. 38: 2508-2513).
# FIG. 1 is a graph depicting the effects on the test compounds on RPMI cell viability.
# [2] = system: Female Lewis rats; assay: Toxicity in Female Lewis rats; type: in vivo; conditions: 100 mg/kg ip, in comparison with PBS control
# Protocol: The next set of experiments was designed to determine the toxicity of the compounds. Each compound was administered to Female Lewis rats at a dose of 100 mg/kg via ip administration.
# [3] = target: 5-HT2A receptor (Homo sapiens, UniProt P28223); assay: 5-HT2A receptor binding; conditions: versus fluphenazine (ICI-1175), FIG. 8
# Sequence of 5-HT2A receptor (P28223 whole entry): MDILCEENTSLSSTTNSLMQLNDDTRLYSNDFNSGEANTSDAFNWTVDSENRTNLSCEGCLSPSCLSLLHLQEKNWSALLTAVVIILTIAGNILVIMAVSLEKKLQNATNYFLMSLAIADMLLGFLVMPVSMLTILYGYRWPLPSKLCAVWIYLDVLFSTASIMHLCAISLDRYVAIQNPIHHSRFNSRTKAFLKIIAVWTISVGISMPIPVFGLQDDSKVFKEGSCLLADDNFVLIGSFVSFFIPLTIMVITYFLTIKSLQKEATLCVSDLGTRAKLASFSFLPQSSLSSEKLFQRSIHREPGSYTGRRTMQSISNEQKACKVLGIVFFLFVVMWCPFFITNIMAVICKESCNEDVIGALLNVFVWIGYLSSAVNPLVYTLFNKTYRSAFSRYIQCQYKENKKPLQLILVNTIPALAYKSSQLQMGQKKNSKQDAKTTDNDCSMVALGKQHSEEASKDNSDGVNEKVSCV
# Protocol: (§1) The methods employed in this study have been adapted from the scientific literature to maximize reliability and reproducibility. Where presented, IC50 values were determined by a non-linear, least squares regression analysis using the DATA ANALYSIS TOOLBOX (MDL Information Systems, San Leandro, Calif., USA). Where inhibition constants (Ki) are presented, the Ki values were calculated using the equation of Cheng and Prusoff (Cheng, Y., Prusoff, W. H., Biochem. Pharmacol. 22:3099-3108, 1973) or equivalent using the observed IC50 of the tested compound, the concentration of ligand employed in the assay, and historical values for the KD of the ligand.
# (§2) The experiments include contacting a serotonin type 1B, 2A, 2B, 2C, 3, 4, 6, and 7 receptor with a test compound and comparing the level of binding of serotonin or a control ligand with that serotonin type 1B, 2A, 2B, 2C, 3, 4, 6, and 7 receptor with the level of serotonin binding or control ligand binding with an otherwise identical serotonin type 1B, 2A, 2B, 2C, 3, 4, 6, and 7 receptor not contacted with the test compound. […] The skilled artisan would also appreciate, in view of the disclosure provided herein, that standard binding assays known in the art, or those to be developed in the future, can be used to assess the binding of serotonin or a control ligand with a serotonin type 1B. 2A, 2B, 2C, 3, 4, 6, and 7 receptor in the presence or absence of the test compound to identify a useful compound.
# (§3) The next set of experiments was designed to assess the selective binding of the test compounds to 5-HT receptors. ICI-848, ICI-1259, and ICI-1260 were tested against fluphenazine (ICI-1175) to determine selective binding to 5-HT receptors.
# [4] = target: histamine type 1 receptor (Homo sapiens, UniProt P35367); assay: Binding to non-5-HT receptors: histamine type 1 receptor; conditions: FIG. 12
# Sequence of histamine type 1 receptor (P35367 whole entry): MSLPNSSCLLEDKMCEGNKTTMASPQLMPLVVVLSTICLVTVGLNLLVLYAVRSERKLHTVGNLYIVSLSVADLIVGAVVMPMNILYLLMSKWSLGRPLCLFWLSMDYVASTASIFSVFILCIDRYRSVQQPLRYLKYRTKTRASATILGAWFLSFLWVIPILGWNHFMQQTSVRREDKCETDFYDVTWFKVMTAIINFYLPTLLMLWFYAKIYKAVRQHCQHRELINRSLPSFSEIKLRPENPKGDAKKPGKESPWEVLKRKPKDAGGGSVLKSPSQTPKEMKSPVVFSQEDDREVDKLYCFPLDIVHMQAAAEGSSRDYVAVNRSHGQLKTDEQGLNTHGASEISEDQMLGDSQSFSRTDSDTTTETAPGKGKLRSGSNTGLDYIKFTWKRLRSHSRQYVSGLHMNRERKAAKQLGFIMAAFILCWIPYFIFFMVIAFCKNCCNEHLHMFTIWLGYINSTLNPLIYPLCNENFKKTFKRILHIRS
# Protocol: as §1
# The next set of experiments was designed to assess the selective binding of the test compounds to non-5-HT receptors. The compounds tested are as follows: ICI-735, 848, 849, 1259, and 1260. […] It was also observed that the compounds that bound well to 5-HT4 receptor also bound well to histamine type 1 receptor.
# [5] = target: 5-HT4 receptor (Homo sapiens, UniProt Q13639); assay: 5-HT4 receptor binding; conditions: versus fluphenazine (ICI-1175), FIG. 8
# Sequence of 5-HT4 receptor (Q13639 whole entry): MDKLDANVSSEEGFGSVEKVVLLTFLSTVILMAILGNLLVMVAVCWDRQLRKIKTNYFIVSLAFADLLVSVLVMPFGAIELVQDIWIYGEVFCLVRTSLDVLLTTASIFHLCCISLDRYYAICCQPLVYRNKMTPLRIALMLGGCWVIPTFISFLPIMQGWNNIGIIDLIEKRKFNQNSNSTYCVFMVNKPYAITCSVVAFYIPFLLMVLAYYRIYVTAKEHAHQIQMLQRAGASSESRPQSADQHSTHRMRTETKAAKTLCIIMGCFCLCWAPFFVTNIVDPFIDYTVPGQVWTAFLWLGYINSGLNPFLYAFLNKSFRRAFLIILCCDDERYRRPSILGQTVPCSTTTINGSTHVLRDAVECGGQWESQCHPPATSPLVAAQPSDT
# Protocol: as §1, §2, §3
# The next set of experiments was designed to assess the Ki values of the tested compounds.
# [6] = system: rat model of collagen-induced arthritis; assay: Rat model of collagen-induced arthritis, ankle diameter; type: in vivo; conditions: for reduction of ankle diameter: 10 mg/kg ip daily, about 3 days, caliper measurement; for efficacy in reducing ankle diameter compared with Enbrel: rheumatoid arthritis rat model, versus Enbrel
# Protocol: The next set of experiments was designed to test the ability of the compounds of the invention on a rat model of collagen-induced arthritis. Briefly, Female Lewis rats were immunized with bovine type 2 collagen 2 mg/mL in 0.01N HAc mixed 1:1 w/ FIA injected id 0.1 mL at each of three sites on back (Rosloniec, E. F., A. H. Kang, L. K. Myers, M. A. Cremer. 1996. Collagen-induced arthritis. R. Coico, and E. Shevach, eds. Current Protocols in Immunology 15.5.1. Weily & Sons, New York.).
# FIG. 2 depicts a schematic of the collagen-induced arthritis protocol. Briefly, a test compound of the invention is delivered ip at 10 mg/kg daily, for about 3 days.
# FIG. 4 depicts ICI 1260, 1259, 848, 849, 761, 715, and 847 with respect to Enbrel. Additional testing for the effectiveness of compounds ICI 1260, 1259, 848, 849, 761, 715, and 847 at various concentrations (10 mg/kg, 2 mg/kg, 0.4 mg/kg) were conducted, as illustrated in FIGS. 5A-5G. A dose response curve was constructed to illustrate the efficacy of the seven compounds (FIG. 6).
# [7] = target: T1, 5-HT1A receptor (Homo sapiens, UniProt P08908); assay: 5-HT1A receptor binding; conditions: versus fluphenazine (ICI-1175), FIG. 8
# T1 sequence (P08908 1-422): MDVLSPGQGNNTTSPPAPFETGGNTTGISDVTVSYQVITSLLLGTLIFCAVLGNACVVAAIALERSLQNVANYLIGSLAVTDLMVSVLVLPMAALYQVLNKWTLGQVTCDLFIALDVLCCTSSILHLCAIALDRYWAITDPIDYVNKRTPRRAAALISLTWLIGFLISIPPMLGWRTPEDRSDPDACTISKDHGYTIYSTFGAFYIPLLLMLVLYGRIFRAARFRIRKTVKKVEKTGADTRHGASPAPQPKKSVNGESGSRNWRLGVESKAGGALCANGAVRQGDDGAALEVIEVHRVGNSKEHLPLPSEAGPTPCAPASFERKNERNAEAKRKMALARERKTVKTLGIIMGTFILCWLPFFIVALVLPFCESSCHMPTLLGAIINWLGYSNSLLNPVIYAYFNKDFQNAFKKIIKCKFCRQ
# Protocol: as §1, §3
SMILES,ability to inhibit proliferation of RPMI cells [1],toxicity [2],binding to 5-HT2A receptor compared to fluphenazine [3],binding to histamine type 1 receptor [4],binding to 5-HT4 receptor compared to fluphenazine [5],reduction of ankle diameter ([6]; listed as ICI-1259),efficacy in reducing ankle diameter compared with Enbrel [6],binding to 5-HT1A receptor compared to fluphenazine [7],ability to inhibit proliferation of RPMI cells ([1]; listed as ICI-1260),reduction of ankle diameter ([6]; listed as ICI-1260)
CNCC(=O)NCCCN1CCC(CCCN2c3ccccc3Sc3ccc(C(F)(F)F)cc32)CC1 [ICI-01259],able to inhibit the proliferation of RPMI cells,not toxic,decreased binding,able to bind histamine type 1 receptor,increased binding,decrease the ankle diameter to a desirable level; also recorded: most desirable reduction of ankle diameter,more effective in reducing the ankle diameter than Enbrel,decreased binding,–,–
NCC(=O)NCCCN1CCC(CCCN2c3ccccc3Sc3ccc(C(F)(F)F)cc32)CC1 [ICI-01260],–,not toxic,decreased binding,able to bind histamine type 1 receptor,increased binding,–,more effective in reducing the ankle diameter than Enbrel,decreased binding,able to inhibit the proliferation of RPMI cells,decrease the ankle diameter to a desirable level; also recorded: most desirable reduction of ankle diameter
